Results taken from publication PMC5531531, “A synthetic cationic antimicrobial peptide inhibits inflammatory response and the NLRP3 inflammasome by neutralizing LPS and ATP” (PLoS ONE, 2017).
No end group written: not given here.

System: LPS-induced NO generation in RAW264.7 cells
Assay: NO inhibitory assay (Griess reaction), LPS-activated RAW 264.7
Type: cell-based, mouse
Details: E. coli LPS 0.1 μg/ml, 24 h, Griess reaction; mean of triplicate wells from at least three experiments
Experimental: RAW 264.7 cells (2 × 10^5 in 0.5 ml of medium) were seeded in 24-well plates and then incubated with or without LPS (0.1 μg/ml) in the absence or presence of AMP for 24 h. The effects of AMP on NO production were measured indirectly by analyzing nitrite levels using the Griess reaction as described in detail previously.

Sequence	ED50, effective dose of AMPs that inhibits 50% of LPS-induced NO generation in RAW264.7 cells [µM]
GAKALTKAATAFTKFYKTIW [GW-A4]	4
GAKYAKYIYNFYKYIAKYIW [GW-A1]	>8
GANAAKKFATIAKKFINYLW [GW-Q4]	>8
GANAAKKLATFAKKIFTAYW [GW-M1]	4
GANLAKKFYTYINKFINYAW [GW-Q3]	7
GATYAKKIIKTITKIATTAW [GW-A5]	>8
GIGKFLHSAKKWGKAFVGEIMNS [Peptide M2a, Magainin 2a, reference compound]	>8
GIKIAKKAITIAKKIAKIYW [GW-Q6]	4
GLTFLKKILNFAKKIYTAIW [GW-H3]	4
GWGSFFKKAAHVGKHVGKAALTHYL [Ple, Pleurocidin, reference compound]	>8
GYKYYNKIYNYLNKYLKYAW [GW-H0]	5
GYNYAKKLANLAKKFANALW [GW-H1]	>8
